Here are results for one compound from patent US11471502B2, “Neuroprotective peptide” (UNIVERSITY COLLEGE CARDIFF C[…], priority 2017, dated 2022).

The target of data set [1] is phospho p44/p42 MAP kinase. In words: Dose response curve of RB5 for ERK activation in striatal slices. The data set is classed as cell-based, mouse. The following applies: 200 μm striatal slices, 1 h pre-treatment; read-out: EC50 for enhancing pERK (phospho-ERK positive cells). Here is the method:
a) RB5 peptide selectively promoted activation of ERK2. Acute striatal slices either pre-treated with Scramble (SCR) or RB5 peptide (50 μM) and then stimulated 10 minutes with glutamate (GLU) (100 μM) or vehicle were analysed in Western blot (left panel) and probed with anti phospho ERK antibodies (p44^ERK1 and p42^ERK2) and anti ERK1/2 antibody. GAPDH was used as loading control. […] No changes were detected in the total ERK1 and ERK2 levels. GAPDH was used as loading control. […] Mice injected with a single dose of CPP-SCR or CPP-RB5 peptides (20 mg/kg, i.p.) were rapidly perfused 1 h later and brains were dissected and further analysed for IHC and immunofluorescence. Representative photomicrographs of pERK1/2, pMSK, pAch3, pELK1 and c-Fos expression in the striatum. […] Two-way ANOVA Bonferroni post hoc comparison: one black star, p<0.05, two black stars, p<0.01, one white star, p<0.001. p) Dose response curve of RB5 peptide for ERK activation. 200 μm thick striatal slices were freshly prepared from 2-month old mice and transferred into a perfusion chamber for 1 h at 32° C. Slices were pre-treated with different doses of RB5 or scrambled control. After 1 h, slices for each dose was fixed in PFA 4% for 15 min. […] Neuronal quantification was performed with ImageJ software by counting the number of phospho-ERK positive cells in each slice. […] The EC50 was calculated using GraphPad Prism software.

Another data set concerns MPTP treated mice. The data set can be described thus: Subacute MPTP mouse model of Parkinson's Disease. The data set is classed as in vivo. Particulars: 4 days. Here is the method: Adult mice were treated with MPTP or vehicle (20 mg/kg i.p.) for 4 days. […] Two-way ANOVA Bonferroni post-hoc comparison *p<0.05**p<0.01.
Two-way ANOVA Bonferroni post-hoc comparison *p<0.05**p<0.01
We have assessed the neuroprotective effect of RB5 in the MPTP (1-methyl-4-phenyl-1,2,3,6-tetrahydropyridine) neurotoxin model of Parkinson's Disease (FIG. 6). Mice have been treated with MPTP or vehicle (20 mg/kg, i.p) for 4 days. RB5 or scramble peptide (20 mg/kg, i.p) was injected 1 h before MPTP/vehicle.

Data set [2] can be described thus: In vivo time course and dose response of ERK activation in dorsal striatum. Set-up: species or system mouse. The following applies: mouse, in vivo, ip; 20 mg/kg i.p.; read-out: estimated half-life (of RB5 activity on pERK in brain) (converted). Here is the method:
(§1) Mice injected with RB5 were perfused at different time points, whereas scramble-injected mice were perfused after 1 hour. Immunohistochemical analysis was carried out against phospho-p44/p42 MAP kinase (Thr202/Tyr204). […] One-way ANOVA F5,29=9.137, p<0.0001. Bonferroni's post-hoc test, SCR vs RB5 1 h: p<0.001, SCR vs RB5 6 h: p<0.001. […] Immunohistochemical analysis was carried out against phospho-p44/p42 MAP kinase (Thr202/Tyr204). […] One-way ANOVA: F5,29=7.097, p<0.001. Bonferroni's post-hoc test, SCR vs RB5 20 mg/kg: p<0.05, SCR vs RB5 10 mg/kg: p<0.01. Data are expressed as Mean±SEM. c) RB5 brain levels measured with mass spectrometry at different hours after a single i.p. administration of 20 mg/kg. High levels of RB5 were detected up to 6 hrs (one-way ANOVA, F4,18=17.469, P<0.0001, Bonferroni's post-hoc, SCR vs RB5 1 h P<0.01, SCR vs RB5 3 h P<0.0001, SCR vs RB5 6 h P<0.05). […] White star P<0.0001, P<0.001, P<0.01, P<0.05.
(§2) 1 h after CPP-RB5/CPP-SCR (20 mg/kg, i.p.) mice were anaesthetized and perfused via intracardiac infusion of ice-cold 4% PFA. Brains were rapidly extracted, post-fixed overnight and transferred to 25% buffered sucrose for 24 h. Coronal sections were cut at 30 μm thickness on a freezing microtome and stored in a cryoprotective solution at −20° C. until they were processed for immunohistochemistry. Free-floating sections were incubated with primary antibodies against anti-phospho-p44/42 MAP kinase (Thr202/Tyr204), anti-phospho-Elk-1 (Ser383), anti-phospho-Kv4.2 (Thr607)-R, anti-phospho-MSK-1, anti-phospho-MEK-1, c-Fos and Tyrosine Hydroxylase overnight at 4° C. Sections were then incubated with biotinylated goat anti-rabbit IgG (1:200, Vector Labs) for 2 h. Detection of the bound antibodies was carried out using a standard peroxidase-based method (ABC-kit, Vectastain, Vector Labs), followed by a DAB and H2O2 solution. Quantification of positive neurons were counted from striatum in 2-3 sections per mouse, bilaterally. Sample areas were visualized under a 20× objective in a Leica DM IRB microscope by a blind investigator to condition and counts per region were averaged across the sections using the ImageJ software.

In data set [3] the test system is phospho-p44/p42 MAP kinase (Thr202/Tyr204). The description is as above. Set-up: species or system mouse. Particulars: dorsal striatum. How it is done: as §1, §2
Another data set concerns HdhQ111 mice. In words: HdhQ111 genetic mouse model of Huntington's disease. The data set is classed as in vivo. How it is done:
WT and HdhQ111 mice were treated with CPP-RB5 or Scramble (CPP-SCR) peptides (20 mg/kg i.p.) for 8 days.
Two-way ANOVA Bonferroni post-hoc comparison ***p<0.001.
HdhQ111 heterozygous mice (Jax®, Bar Harbour, Me., U.S.A.), zQ175 knock-in heterozygous (mix sex) carrying between 180 and 195 CAG repeats (CHDI-81003003, Psychogenics, Inc. Tarrytown, N.Y.) and Tg2576 transgenic male mice (C57BL6 and SLJ mix background, Taconic Biosciences) were used for IHC, IF and behavioural test.
We also evaluated the potential neuroprotective effect of RB5, in hdhQ111 transgenic mice, a late onset genetic model of Huntington's Disease. hdhQ111 mice were treated (20 mg/kg, i.p., twice a day) for 7 days (FIG. 5).

Molecules are shown by their SMILES. Entries after “also recorded” stand apart in the source; their conditions may differ.

Take `CSCC[C@H](NC(=O)[C@H](CCC(=O)O)NC(=O)[C@@H](NC(=O)[C@H](CCC(=O)O)NC(=O)CNC(=O)[C@@H]1CCCN1C(=O)[C@@H](NC(=O)CNC(=O)[C@@H]1CCCN1C(=O)CNC(=O)[C@@H](NC(=O)CNC(=O)[C@H](CCC(=O)O)NC(=O)[C@@H](NC(=O)[C@H](CCCNC(=N)N)NC(=O)[C@H](CCCNC(=N)N)NC(=O)[C@@H]1CCCN1C(=O)[C@H](CCC(=O)O)NC(=O)CNC(=O)CNC(=O)CNC(=O)CNC(=O)CNC(=O)[C@H](CCC(N)=O)NC(=O)[C@@H]1CCCN1C(=O)[C@@H]1CCCN1C(=O)[C@H](CCCNC(=N)N)NC(=O)[C@H](CCCNC(=N)N)NC(=O)[C@H](CCCNC(=N)N)NC(=O)[C@H](CCC(N)=O)NC(=O)[C@H](CCCNC(=N)N)NC(=O)[C@H](CCCNC(=N)N)NC(=O)[C@H](CCCCN)NC(=O)[C@H](CCCCN)NC(=O)[C@H](CCCNC(=N)N)NC(=O)CNC(C)=O)[C@@H](C)O)C(C)C)C(C)C)C(C)C)C(=O)N[C@H](C(=O)N[C@@H](CCCCN)C(=O)NCC(=O)N[C@@H](CCC(N)=O)C(=O)N1CCC[C@H]1C(=O)N[C@@H](Cc1ccccc1)C(=O)N[C@@H](CC(=O)O)C(=O)N[C@@H](C(=O)O)C(C)C)C(C)C` [RB5]: in data set [1], the EC50 came out at 3.4 µM. For the same compound, the “TH loss in Substantia Nigra” value in the data set with MPTP treated mice (20 mg/kg i.p. 1 h before MPTP 20 mg/kg) is recorded as “significant reduction of TH loss”. For the same compound, in the data set on MPTP treated mice (20 mg/kg i.p. 1 h before MPTP), the “apoptotic cells (TUNEL, nigral neurones)” value is reported as “significant reduction of apoptotic cells”; the “neurodegeneration (TH, TUNEL, cleaved caspase 3)” value is recorded as “Neurodegeneration was prevented”; the “pre-apoptotic state (Cleaved Caspase-3)” value is recorded as “significant reduction of the pre-apoptotic state”. Besides, in data set [2], the half-life is 9 h. Further, in data set [3] (20 mg/kg i.p.), the “time after injection at which phospho-ERK returned to basal levels” value is 12 h and the “time after injection up to which phospho-ERK levels / RB5 activity remained increased” value was “up to 6 h”. Moreover, in data set [3] (different doses i.p., 1 hour after injection), the pERK dose response entry is “both 20 and 10 mg/kg (i.p.) doses are able to elevate pERK; also recorded: dose-dependent manner”. In addition, the “degeneration in the hdhQ111 mutants” value in the data set with HdhQ111 mice (20 mg/kg i.p. twice a day, 7 days) is reported as “prevents degeneration”. For the same compound, the “ERK activation (pERK) in striatum” value with HdhQ111 mice (20 mg/kg i.p., 8 days) is “elevated pERK in WT and mutant striata; also recorded: significant enhancement of ERK activation”. Further, the “apoptotic cells (TUNEL, dorsal striatum)” value in the data set on HdhQ111 mice (HdhQ111 mice, 20 mg/kg i.p., vs Scramble) is given as “significant reduction of apoptotic cells”. Moreover, the “pre-apoptotic state (Cleaved Caspase-3)” value with HdhQ111 mice (hdhQ111 mice, 20 mg/kg i.p.) is listed as “significant reduction of pre-apoptotic state”.
